Like-named read-outs stand apart in the source and are kept apart here.
What was measured:
CYP2C8 = biological target: T1, CYP2C8 (Homo sapiens, UniProt P10632); test: In vitro CYP inhibition study, human liver microsomes, CYP2C8; type: in vitro ADME; settings: Taxol 6α-hydroxylase, 5 mM
T1 construct: from tissue; host or cells: human liver microsomes
T1 sequence (P10632 1-490): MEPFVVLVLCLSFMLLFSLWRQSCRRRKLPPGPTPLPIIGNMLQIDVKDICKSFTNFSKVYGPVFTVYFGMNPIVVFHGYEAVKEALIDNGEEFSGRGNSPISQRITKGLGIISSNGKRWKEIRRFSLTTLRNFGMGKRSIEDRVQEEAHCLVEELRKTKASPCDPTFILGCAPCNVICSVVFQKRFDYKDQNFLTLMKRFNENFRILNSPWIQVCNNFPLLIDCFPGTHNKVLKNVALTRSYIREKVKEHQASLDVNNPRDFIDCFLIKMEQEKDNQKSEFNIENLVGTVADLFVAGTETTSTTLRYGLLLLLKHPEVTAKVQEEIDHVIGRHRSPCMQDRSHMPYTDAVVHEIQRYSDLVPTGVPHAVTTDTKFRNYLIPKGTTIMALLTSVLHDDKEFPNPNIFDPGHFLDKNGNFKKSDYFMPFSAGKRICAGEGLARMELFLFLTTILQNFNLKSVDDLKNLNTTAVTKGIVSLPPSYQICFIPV

CYP2C19 = biological target: T2, CYP2C19 (Homo sapiens, UniProt P33261); type: in vitro ADME; settings: S-Mephenytoin 4′-hydroxylase, 5 mM
T2 construct: from tissue; host or cells: human liver microsomes

CYP3A4/5 = type: in vitro ADME, human; settings: 5 mM
CYP1A2 = biological target: T3, CYP1A2 (Homo sapiens, UniProt P05177); type: in vitro ADME; settings: 7-ethoxyresorufin-O-deethylase, 5 mM
T3 construct: from tissue; host or cells: human liver microsomes
T3 sequence (P05177 1-516): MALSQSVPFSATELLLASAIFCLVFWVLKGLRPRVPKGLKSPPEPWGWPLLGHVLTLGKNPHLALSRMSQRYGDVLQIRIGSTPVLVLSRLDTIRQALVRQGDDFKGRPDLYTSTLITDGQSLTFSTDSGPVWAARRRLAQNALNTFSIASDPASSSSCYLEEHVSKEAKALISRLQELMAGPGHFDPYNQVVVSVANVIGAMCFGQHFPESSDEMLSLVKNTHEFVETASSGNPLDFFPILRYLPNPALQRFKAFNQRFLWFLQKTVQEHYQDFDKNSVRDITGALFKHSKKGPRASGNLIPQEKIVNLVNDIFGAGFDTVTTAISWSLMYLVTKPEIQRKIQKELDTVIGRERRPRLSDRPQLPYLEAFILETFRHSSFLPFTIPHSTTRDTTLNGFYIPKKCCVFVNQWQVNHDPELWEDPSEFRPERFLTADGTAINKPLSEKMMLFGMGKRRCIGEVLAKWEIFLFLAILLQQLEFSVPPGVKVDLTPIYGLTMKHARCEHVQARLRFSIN

T2 sequence (P33261 whole entry): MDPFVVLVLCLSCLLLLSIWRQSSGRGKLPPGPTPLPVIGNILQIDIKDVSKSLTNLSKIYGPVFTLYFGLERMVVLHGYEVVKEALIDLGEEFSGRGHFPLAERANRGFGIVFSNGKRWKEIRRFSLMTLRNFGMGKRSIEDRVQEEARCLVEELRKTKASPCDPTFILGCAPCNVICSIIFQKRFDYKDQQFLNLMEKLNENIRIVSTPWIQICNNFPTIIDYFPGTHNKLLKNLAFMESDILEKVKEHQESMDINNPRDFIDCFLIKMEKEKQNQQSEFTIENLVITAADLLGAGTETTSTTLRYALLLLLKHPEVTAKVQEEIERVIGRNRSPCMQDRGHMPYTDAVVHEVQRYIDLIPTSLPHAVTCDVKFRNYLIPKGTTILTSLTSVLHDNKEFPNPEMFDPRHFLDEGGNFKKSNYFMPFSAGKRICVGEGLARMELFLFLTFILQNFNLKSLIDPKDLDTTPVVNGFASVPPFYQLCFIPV

`O=C(CCCc1ccccc1)OCC(COC(=O)CCCc1ccccc1)OC(=O)CCCc1ccccc1` [RAVICTI, benzenebutanoic acid, 1′,1″-(1,2,3-propanetriyl) ester] was tested, and the “% Inhibition” value (CYP2C8; pre-incubation time 0 min) was 11%, the “% Inhibition” value (CYP2C8; pre-incubation time 30 min) was 10% and the “% Inhibition” value (CYP2C19; pre-incubation time 0 min) was 8%. For the same compound, the “% Inhibition” value (CYP2C19; pre-incubation time 30 min) was 7%, the “% Inhibition” value (CYP3A4/5; Midazolam 1′-hydroxylase, pre-incubation time 0 min) was 19% and the “% Inhibition” value (CYP3A4/5; Midazolam 1′-hydroxylase, pre-incubation time 30 min) was 24%. The “% Inhibition” value (CYP3A4/5; Testosterone 6β-hydroxylase, pre-incubation time 0 min) was 15%, the “% Inhibition” value (CYP3A4/5; Testosterone 6β-hydroxylase, pre-incubation time 30 min) was 6% and the “% Inhibition” value (CYP1A2; pre-incubation time 0 min) was 5%. For the same compound, the “% Inhibition” value (CYP1A2; pre-incubation time 30 min) was 8%.

— patent US20190076384A1, “METHODS FOR TREATING UREA CYCLE DISORDERS” (priority 2017, published 2019)
